Consider eight molecules from patent US6676932B2, “Ultraviolet absorbent, photostabilizer, ultraviolet ray-absorbing composition, photostabilized composition and external preparation for skin” (Shiseido Co., Ltd., priority 2001, dated 2004).

Common to all, as to assay type: physicochemical
Series [1] is described as follows: Dye stabilization effect under daylight exposure (Test Examples 6-91). As to conditions: photostabilizer 0.05 wt %, daylight exposure (80 MJ). Set-up: key to Δ E: color difference ΔE in Lab vs. color before daylight exposure; key to Appearance (visual determination): ◯: no change; Δ: almost no change; x: change. On the procedure: For observation of the change of the appearance of each test sample (determination based on visual observation) and the measurement of color difference (ΔE) before and after daylight exposure (80 MJ), the test sample was prepared.
(§1) With a spectrophotometer, the color was measured on the Lab coordinate system, to calculate the color difference on the basis of the color before daylight exposure. More specifically, the color difference (ΔE) was calculated on the basis of the measured values (L1, a1, b1) before daylight exposure.

Series [2] can be described thus: Stabilization effect on perfume under daylight exposure (Test Examples 92 to 181). The note with it: daylight exposure (80 MJ). Also noted: key: ◯: no change; Δ: almost no change; x: change. The procedure: Each test sample was prepared for observation of the change of the odor of the test sample (determined by perfume coordinator) before and after daylight exposure (80 MJ).

Series [3] in a line: Dye stabilization effect in blend with sequestering agents (Test Examples 212 to 275). The note with it: daylight exposure (80 MJ). The procedure: Each test sample was prepared for observation of the change of the appearance of each test sample (determined visually) and measurement of the color difference (ΔE) before and after daylight exposure (80 MJ).
as §1

Setting [4] is: dye Blue 1 (Brilliant Blue FCF) 0.0001 wt %.
The mark [5] stands for this setting: dye Green 3 (Fast Green FCF) 0.001 wt %.
Where [6] appears, read: dye Red 227 (Acid Fuchsine D) 0.0001 wt %.
Where [7] appears, read: dye Yellow 5 (Sunset Yellow FCF) 0.001 wt %.
Where [8] appears, read: dyes Red 106 (Acid red) 0.00001 + Yellow 203 (Quinoline Yellow WS) 0.0001 wt %.
The mark [9] stands for this setting: dye Green 3 (Fast Green FCF) 0.001, sequestering agent 0.1 alone, photostabilizer 0.
Where [10] appears, read: dye Yellow 5 (Sunset Yellow FCF) 0.0001, sequestering agent 0.03 alone, photostabilizer 0.

Consider `OCCN(CCO)c1cnnc(O)c1` [5-bis(2-hydroxyethyl)amino-3-hydroxypyridazine], for which the “Appearance (visual determination)” value in series [1] (setting [4]), in series [1] (setting [5]), in series [1] (setting [6]), in series [1] (setting [7]) and in series [1] (setting [8]) was “◯” each time. The “Δ E” value in series [1] (setting [4]) amounted to 1.29; in series [1] (setting [5]) it was 0.62; in series [1] (setting [6]) it was 0.55; in series [1] (setting [7]) it was 0.65; in series [1] (setting [8]), 0.85. The odor determination result is “◯” in series [2] (base perfume Muge, photostabilizer 0.05 wt %); “◯” in series [2] (natural perfume Jasmine oil, photostabilizer 0.05 wt %); “◯” in series [2] (synthetic perfume Rose oxide, photostabilizer 0.2 wt %).

Take `CCCCC(CC)COC(=O)/C=C/c1ccc(OC)cc1` (centres unmarked) [p-Methoxycinnamate octyl, reference compound]: the “Appearance (visual determination)” value in series [1] (setting [4]), in series [1] (setting [5]), in series [1] (setting [6]) and in series [1] (setting [7]) was “x” in each case. In addition, the “Δ E” value is 5.23 in series [1] (setting [4]), 1.64 in series [1] (setting [5]), 1.22 in series [1] (setting [6]) and 1.56 in series [1] (setting [7]).

For `O=C([O-])CN(CCN(CC(=O)[O-])CC(=O)O)CC(=O)[O-].[Na+].[Na+].[Na+]` [ethylenediaminetetraacetate trisodium], the “Δ E” value was 8.32 in series [3] (dye Blue 1 (Brilliant Blue FCF) 0.001, sequestering agent 0.05 alone, photostabilizer 0); 1.75 in series [3] (setting [9]); 1.40 in series [3] (dye Red 227 (Acid Fuchsine D) 0.0001, sequestering agent 0.02 alone, photostabilizer 0); 1.72 in series [3] (setting [10]); 4.26 in series [3] (dyes Red 106 (Acid Red) 0.00001 + Yellow 5 (Sunset Yellow FCF) 0.0001, sequestering agent blend amount 0.02, photostabilizer 0); 1.55 in series [3] (dyes Red 227 (Acid Fuchsine D) 0.0001 + Yellow 5 (Sunset Yellow FCF) 0.0001, sequestering agent blend amount 0.02, photostabilizer 0). The “Δ E” value in series [3] (dyes Red 401 (Violanin R) 0.0001 + Blue 1 (Brilliant Blue FCF) 0.00001, sequestering agent blend amount 0.03, photostabilizer 0) is listed as 3.02.

`Oc1nncc(N2CCCCC2)c1N1CCCCC1` [4,5-Dipipendino-3-hydroxypyridazine]: the “Δ E” value in series [3] (dyes Red 227 (Acid Fuchsine D) 0.0001 + Yellow 5 (Sunset Yellow FCF) 0.0001, no sequestering agent, photostabilizer blend amount 0.01) is on record as 1.12; in series [3] (dyes Red 227 (Acid Fuchsine D) 0.0001 + Yellow 5 (Sunset Yellow FCF) 0.0001, with ethylenediaminetetraacetate trisodium 0.02, photostabilizer blend amount 0.01), 0.68.

For the molecule `Oc1nncc(N2CCCCC2)c1N1CCCCC1` [4,5-Dipiperidino-33-hydroxy pyridazine], the “Δ E” value in series [3] (dyes Red 401 (Violanin R) 0.0001 + Green 3 (Fast Green FCF) 0.00001, no sequestering agent, photostabilizer blend amount 0.02) came to 1.52; in series [3] (dyes Red 401 (Violanin R) 0.0001 + Green 3 (Fast Green FCF) 0.00001, with sodium metaphosphate 0.03, photostabilizer blend amount 0.02), 0.77.

As to `OCCNc1ccc(NCCO)nn1` [3,6-Bis(2-hydroxyethylamino) pyridazine], the “Δ E” value was determined as 0.88 in series [3] (dyes Yellow 203 (Quinoline Yellow WS) 0.0001 + Yellow 5 (Sunset Yellow FCF) 0.0001, no sequestering agent, photostabilizer blend amount 0.02) and 0.55 in series [3] (dyes Yellow 203 (Quinoline Yellow WS) 0.0001 + Yellow 5 (Sunset Yellow FCF) 0.0001, with sodium metaphosphate 0.01, photostabilizer blend amount 0.02).

For `COc1cc(O)c(C(=O)c2ccccc2)cc1S(=O)(=O)[O-].[Na+]` [2-Hydroxy-4-methoxybenzophenone-5-sulfonate sodium, reference compound], the “Appearance (visual determination)” value in series [1] (setting [4]), in series [1] (setting [5]), in series [1] (setting [6]) and in series [1] (setting [7]) was “Δ” each time. The “Δ E” value amounted to 1.67 in series [1] (setting [4]), 0.74 in series [1] (setting [5]), 0.80 in series [1] (setting [6]) and 0.78 in series [1] (setting [7]).

sodium polyphosphate: the entries for the “Δ E” value in series [3] (setting [9]) and in series [3] (setting [10]) were 1.75 and 1.70, respectively.
